Measurements reported in ChEMBL document CHEMBL1152826, “Fatty acid synthesis is essential for survival of Cryptococcus neoformans and a potential fungicidal target” (2007).
Active and inactive are the calls of the source. The rule behind the calls is not given here.

Assays:
Cryptococcus neoformans [1] = assay: Antifungal activity against Cryptococcus neoformans H99 expressing PCTR4-2/FAS1 assessed as logarithmic reduction in viable cells at 8 ug/ml in presence of bathocuproinedisulfonic acid; format: functional
Cryptococcus neoformans [2] = assay: Antifungal activity against Cryptococcus neoformans H99 expressing PCTR4-2/FAS2 assessed as logarithmic reduction in viable cells at 8 ug/ml in presence of bathocuproinedisulfonic acid; format: functional
Cryptococcus neoformans [3] = assay: Antifungal activity against Cryptococcus neoformans H99 expressing PCTR4-2/FAS1 assessed as reduction in viable cells at 8 ug/ml after 72 hrs in presence of CuSO4 relative to CuSO4 alone; format: functional
Cryptococcus neoformans [4] = assay: Fungicidal activity against Cryptococcus neoformans H99 expressing PCTR4-2/FAS2 after 72 hrs in presence of CuSO4; format: functional, organism-based

Q: With OC(Cn1cncn1)(Cn1cncn1)c1ccc(F)cc1F [FLUCONAZOLE] as the compound, how does the Activity (Cryptococcus neoformans [1]) read?
A: 0.5

Q: What about the Activity (Cryptococcus neoformans [2]) of the same compound?
A: 0.5

Q: And the “fold change (FC)” value (Cryptococcus neoformans [3])?
A: 100

Q: What about the Activity (Cryptococcus neoformans [4]) of the same compound?
A: Active
